Measurements published in US4285956A, “Xanthene and thioxanthene derivatives, compositions thereof and treatment therewith” (priority 1978, dated 1981).

How the values were obtained:
[1] = Amphetamine antagonism (stereotypy in rats); format: in vivo; settings: Rattus norvegicus, po, read-out: Amphetamine antagonism ED50, p.o.
[2] = Neuroleptic effect: duration and strength (remarks of Table 2); format: in vivo; settings: for Duration (remarks, words): duration of neuroleptic effect; for Duration (remarks, words) / Strength of effect (remarks, words): in words; for Strength of effect (remarks, words): strength of neuroleptic effect
From the text: The pharmacological testing of the novel xanthones and thioxanthenes of Formula I consisted of standard and reliable tests. […]

[3] = Catalepsy wire mesh, rat, max.; format: in vivo; settings: po, rats
[4] = Methylphenidate antagonism (mice biting corrugated paper); format: in vivo; settings: Mus musculus, ip
Procedure: Methylphenidate antagonism (ED50 mg/kg i.p.)
Perspex observation cages without bottom and lid, consisting of 5 sections each measuring 12×25×30 cm. White corrugated paper. Mice, male, 18-25 g.
The test substance is given i.p. in the doses 0, 1/8, 1/32 and 1/128 of the determined "i.p. LD50". 3×2 mice are used for each dose level. Two or 24 hours after injection of test substance, methylphenidate, 60 mg/kg, is injected s.c. After administration of methylphenidate the mice are placed in the observation cages, 2 in each cage, where they remain for exactly 1 hour. The cages are placed on corrugated paper, the corrugations facing upwards. It is examined whether the mice have been biting the corrugated paper or not. […] If one or more of the control pairs have not been biting, the test has to be repeated on a new set of mice.
The result is stated in fractions: 0/3, 1/3, 2/3 and 3/3 where 0, 1, 2 and 3 are the number of pairs which have not been biting on receipt of the dose in question.
The results are calculated as the dose (ED50), which causes antagonism in 50% of the test animals.

Sedation = settings: in words; for b551 compared with piflutixol
[5] = Acute toxicity, LD50 in male rats following peroral administration; format: in vivo; settings: rat, in vivo, po; male rats, p.o., one week after administration; read-out: LD50 p.o. in male rats after 1 week
Procedure: The acute toxicity, as measured by LD50 in male rats following peroral administration, is much lower for Lu 13-135 when compared with piflutixol one week after administration. The figure for Lu 13-135 is >60 mg/kg against 1.5 mg/kg for piflutixol.

[6] = Catalepsy wire mesh, rat, max.; format: in vivo, rats; settings: Rattus norvegicus, sc, 6 h, read-out: Catalepsy wire mesh, rat, max. ED50
Procedure: Catalepsy wire mesh, rat, max. (ED50 mg/kg s.c.)
A vertical wire netting (50 cm×49 cm). The meshes (openings) of the netting are square (1 cm×1 cm). The wire diameter is 2 mm. Stop watch. Rats, male, 180-200 g.
The animals are labeled and used in groups of five. The test substance is injected subcutaneously (s.c.) (5 ml/kg) at 4 dose levels selected from the fixed dose scale.
The animals are placed in the middle of the vertical wire netting 60, 120, 180, 240, 300 and 360 minutes after injection of the test compound. The animals are considered cataleptic when they remain immobile during a period of 15 seconds. This cataleptic reaction is designated +. If the rats are "atonic" and passively slide down the wire mesh they are considered not cataleptic. If the animals climb up and down the wire mesh they are nor cataleptic. In both situations the designation - is used.

Row | SMILES | ED50 [1] [mg/kg] | Duration (remarks, words) [2] | Strength of effect (remarks, words) [2] | ED50 [3] [mg/kg] | ED50 ([4]; mice, i.p., methylphenidate 60 mg/kg s.c. 2 h after test substance, read-out: Methylphenidate antagonism ED50, 2 h) [mg/kg] | ED50 ([4]; mice, i.p., methylphenidate 60 mg/kg s.c. 24 h after test substance, read-out: Methylphenidate antagonism ED50, 24 h) [mg/kg] | Sedation / sedative effect (Sedation) | LD50 at 168 h [5] [mg/kg] | ED50 [6] [mg/kg] | Duration ([2]; remarks column, hours) [h] | ED50 ([4]; 2 h, read-out: Methylphenidate antagonism ED50, 2 h) [mg/kg] | ED50 ([4]; 24 h, read-out: Methylphenidate antagonism ED50, 24 h) [mg/kg]
1 | CS(=O)(=O)N[C@H]1CC[C@H](CN2CCC(=C3c4ccc(F)cc4Sc4ccc(C(F)(F)F)cc43)CC2)CC1 [Lu 16-049] | 2.5 | long acting | moderately strong | 1.7 | 1 | 0.49 | – | – | – | – | – | –
2 | OCCC1CCN(CC/C=C2/c3ccc(F)cc3Sc3ccc(C(F)(F)F)cc32)CC1 [piflutixol, 2-trifluoromethyl-6-fluoro-9-(3-(4-(2-hydroxyethyl)-1-piperidyl)propylidene)-thioxanthene, reference compound] | – | most long acting | most patent | – | – | – | very strong sedative effects | 1.5 | 0.05 | 48 to 72 | 0.03 | 0.03
